According to patent publication US4243678A, “Acylhydrocarbylaminoalkanoic acids, compositions and uses” (Byk Gulden Lomberg Chemische Fabrik GmbH, priority 1977, dated 1981):
Where two headings read alike, the source gives them in different places.

Columns and labels:
[1] = Influence on bile secretion (choleresis) of the narcotized rat; format: in vivo, rat (male Sprague-Dawley); conditions: in vivo; LD50 mouse i.p. / ED50 rat i.d.; Table II; read-out: TQ (LD50/ED50), bile secretion
Text: (§1) Male Sprague-Dawley rats (body weight from 250 to 300 g) are narcotized with 1.2 g/kg urethane i.m. Then the abdominal cavity is opened medially, the bile duct is ligatured shortly above the place where it leads into the duodenum and also near to the hepatic duct, and both sections are catheterized towards the liver.
(§2) As in the rat all the pancreatic ducts lead out into the central section of the bile duct; it is possible in this way to discharge the pancreatic secretion separately from the distal (ligatured) section and the bile separately from the proximal section of the bile duct.
(§3) The quantities of pancreatic juice and bile juice obtained are measured at intervals of 30 minutes over a period from 2 hours before to 3 hours after the intraduodenal (V. jugularis externa) administration of the compounds to be tested (quantity of liquid administered 5 ml/kg).
(§4) The body temperature of the animals is maintained at 36° to 38° C. by means of electric blankets and radiation; the temperature is monitored rectally.
(§5) The liquid volumes of the 30-minute fractions after the administration of the substance are related in each case to the quantity of bile or pancreatic juice secreted prior to the application of the substance (=100%, mean of the last two measurements). The maximum percentage increase in the pancreatic or bile secretion is represented in dependence upon dose, and from this the ED50 is determined by interpolation.

[2] = tested on: bile secretion; assay: as above; format: in vivo, rat (male Sprague-Dawley); conditions: 0.5 h; narcotized rat, i.d.; liquid volume, 30 min fraction; Table II; read-out: ED50 bile secretion (dose which brings about an increase in the bile secretion by a maximum of 50%)
Text: as §1, §2, §3, §4, §5

[3] = Antihepatotoxic effect: duration of hexobarbital sleep of the rat after liver damage by CCl4; conditions: rat, in vivo
Procedure: (§6) The compounds to be tested are administered 1 hour prior to the administration of CCl4 orally in a liquid volume of 10 ml/kg.
(§7) The antihepatotoxic effect of the compounds to be tested (sodium salts in aqueous solution) is determined by the reduction of the prolongation of sleeping period caused by the CCl4 liver cell damage in the groups treated, as compared with the prolongation of the sleeping period of the CCl4 control group (=100%). […]

[4] = tested on: liver damage by CCl4; assay: as above; conditions: Rattus norvegicus, po
Procedure: as §6, §7

[5] = Determination of toxicity (lethal action on the mouse after intraperitoneal application); format: in vivo; conditions: in vivo, ip
Procedure: (§8) The toxicity investigations are carried out on female NMRI mice (body weight 22 to 26 g). The animals (5 animals per dose) are given food and water ad lib. Different doses of the substances are administered intraperitoneally. The duration of observation is 14 days. The LD50, i.e. the dose at which 50% of the animals die, is determined graphically from the dose/effect curve.

[6] = tested on: mouse; assay: as above; format: in vivo; conditions: 20160 min
Procedure: as §8

[7] = Influence on pancreatic secretion of the narcotized rat; format: in vivo, rat (male Sprague-Dawley); conditions: in vivo, LD50 mouse i.p. / ED50 rat i.d.
[8] = tested on: pancreatic secretion; assay: as above; format: in vivo, rat (male Sprague-Dawley); conditions: 0.5 h, narcotized rat, i.d., liquid volume
[9] = Antiulcerogenic (stomach-protective) action, pylorus ligature and acetylsalicylic acid; format: in vivo, rat (female); conditions: in vivo; LD50 mouse i.p. / ED50 rat i.d.; Table IV; read-out: TQ (LD50/ED50), antiulcerogenic action
Procedure: (§9) The ulcer provocation is carried out on rats which have been made to fast for 24 hours (female, 180 to 200 g) by ligature of the pylorus (under ether narcosis) and the oral application of 100 mg/10 ml/kg acetylsalicylic acid. The administration of the substances was carried out intraduodenally (2.5 ml/kg) immediately after the ligature of the pylorus. The closure of the wound was carried out by means of Michel clamps. 4 hours after this, the animals were autopsied (while inebriated with ether) by dislocation of the atlas, and the stomach was resected. The stomach, opened longitudinally, is fixed on a cork board and, using a stereomicroscope with an enlargement of 10×, the number and size (=diameter) of any ulcers present were determined. The product of the degree of severity (according to the following scale of points) and the number of ulcers was used as the individual ulcer index.
(§10) As a measure of antiulcerogenic effect the reduction in the mean ulcer index of each treated group, as compared with that of the control group (=100%), was used.

[10] = tested on: stomach ulcer; assay: as above; format: in vivo, rat (female); conditions: 4 h; rat, intraduodenally; Table IV; read-out: ED50 antiulcerogenic action (dose which reduces the mean ulcer index by 50%)
Procedure: as §9, §10

[11] = tested on: glucose formation from lactate and pyruvate in isolated perfused liver; assay: Inhibition of the formation of glucose from lactate and pyruvate in the isolated perfused rat liver; set-up: species or system rat (male Sprague-Dawley); conditions: Table XIII
Procedure: For this purpose young male Sprague-Dawley rats (160 to 200 g) are used. The rats are kept in cages of up to 5 animals in a temperature-controlled room (23° C.) with a fixed day/night rhythm (12/12 hours).
Food is withheld from the animals for from 20 to 22 hours prior to the operation. They are allowed to take water ad lib. The operation and the perfusion of the liver are carried out using the technique of R. Scholz et al. [Eur. J. Biochem. 38 (1973) 64 to 72]. The perfusion liquid used is Krebs-Henseleit bicarbonate buffer (pH 7.4), which is saturated with an oxygen/carbon dioxide mixture (95/5) and contains 1.6 mmol/liter of L-lactate and 0.2 mmol/liter of pyruvate. The perfusion liquid is pumped into the liver via a cannula inserted into the portal vein. The effluent perfusion liquid is collected via a cannula inserted into the Vena cava. The liver is perfused for about 2 hours. The test compounds are infused for 16 minutes each from the 32nd to the […] after the perfusion in increasing concentrations (0.02 to 1.00 mmol/liter).
Samples of the effluent perfusion liquid are collected at one-minute intervals and analyzed for glucose, lactate and pyruvate (using standard enzymatic methods). The percentages shown in Table VIII relate to the condition occurring before and after the administration of the compounds, the changes caused solely by lactate and pyruvate being set as being equal to 100%.

C#CC(C)(C)N(CCCC(=O)O)C(=O)c1ccc(Cl)cc1 [Serial No. 3, N-(p-chloro)benzoyl-4-[(2-methyl-3-butyn-2-yl)amino]butyric acid]
selectivity ratio [1]: > 40 | ED50 [2]: 25 mg/kg | selectivity ratio ([3]; TQ (LD50/ED50), antihepatotoxic effect, LD50 mouse i.p. / ED50 rat p.o., Table III): > 10 | ED50 ([4]; read-out: ED50 antihepatotoxic effect (dose which shortens the hexobarbital narcosis by 50%)): 100 mg/kg | LD50 at 336 h ([5]; mouse, Table II): > 1000 mg/kg | LD50 ([6]; mouse, i.p., Table III): > 1000 mg/kg

COc1ccc(Cl)cc1C(=O)N(CCCCCC(=O)O)c1ccccc1-c1ccccc1 [Serial No. 30, 6-[5-chloro-2-methoxy-N-(biphenyl-2-yl)benzamido]caproic acid]
selectivity ratio ([7]; Table VII, read-out: TQ [LD50/ED50], pancreatic secretion): > 200 | ED50 ([8]; 30 min fraction, Table VII, read-out: ED50 pancreatic secretion (dose which brings about an increase in pancreatic secretion of a maximum of 50%)): < 1 mg/kg | selectivity ratio ([3]; TQ LD50/ED25, antihepatotoxic effect, LD50 mouse i.p. / ED25 rat p.o., Table V): > 20 | ED25 ([4]; read-out: ED25 antihepatotoxic effect (shortens hexobarbital narcosis by 25%)): 10 mg/kg | LD50 at 336 h ([5]; mouse, Table IV): > 200 mg/kg | LD50 ([6]; mouse i.p., Table V): > 200 mg/kg | LD50 ([6]; mouse i.p., Table VII): > 200 mg/kg | selectivity ratio [9]: > 20 | ED50 [10]: 10 mg/kg

CC(C)C(=O)N(CCCC(=O)O)C1CCCc2ccccc21 (stereo not drawn) [Serial No. 50, 4-[N-(1,2,3,4-tetrahydro-1-naphthyl)isobutyramido]butyric acid]
selectivity ratio ([7]; Table X, read-out: TQ LD50/ED50, pancreatic secretion): ≥ 66.7 | ED50 ([8]; 30 minute fraction, Table X, read-out: ED50 pancreatic secretion (dose which brings about an increase in pancreatic secretion by a maximum of 50%)): ~3 mg/kg | LD50 at 336 h ([5]; mouse i.p., Table X): > 200 mg/kg | LD50 (i.p.) ([6]; mouse, i.p., Table XIII): > 200 mg/kg | Glucose formation, % change ([11]; 0.2 mmol/liter in the perfusate, isolated perfused liver of fasting rats): -33% | ED50 inhibition of formation of glucose from lactate and pyruvate ([11]; from 4 concentrations, 0.02 to 1.00 mmol/liter): 97 µg/mL
